From the OligoGym collection
These antisense oligonucleotides have a phosphorothioate backbone; sugars and methylation of C are not fully specified.

How the values were obtained:
TFRC = details: ASO
TNFRSF1A = details: ASO
Note: test concentration or dose not given here.

| Sequence | remaining target (mRNA or protein) (fraction of control) (TFRC) | remaining target (mRNA or protein) (fraction of control) (TNFRSF1A) |
| --- | --- | --- |
| AAACCTTGAAGTTGCTGG | 0.93 | – |
| AAAGGCAAAGACCAAAGA | – | 0.69 |
| AAAGGCTCAGGGACGAAC | – | 0.58 |
| AACTGGTTCTCTTTCAAT | 0.95 | – |
| AAGCTGCTGCCTAAAGAC | ≥ 1 | – |
| AATTATGGGAAACACTGT | ≥ 1 | – |
| ACAAAACAAAACAAAACA | – | 0.73 |
| ACACTGCTCCCGATAATG | ≥ 1 | – |
| ACAGTTGAGGGTTGAGAC | – | 0.7 |
| ACGCCAGACTTTGCTGAG | 0.38 | – |
| ACGGTCCCATTGAGGCAG | – | 0.66 |
| ACGGTGTTCTGTTTCTCC | – | 0.93 |
| ACTGACCAGCGACCTCTG | 0.58 | – |
| ACTGTGGTGCCTGAGTCC | – | 0.69 |
| AGACCAGCCCTTAGGATT | 0.56 | – |
| AGACTCGGGCATAGAGAT | – | ≥ 1 |
| AGAGGCAGTTCCCATTAC | 0.46 | – |
| AGATCCCTCACAAATGAA | ≥ 1 | – |
| AGCCGCTCTCACACTCCC | – | 0.64 |
| AGCGGCAGCAGCAGGTCA | – | ≥ 1 |
| AGCTATGGGTATCACATT | ≥ 1 | – |
| AGCTGAGGCAGTGTCTGA | – | 0.73 |
| AGCTGGAGGTGAAGGTGG | – | ≥ 1 |
| AGGAAACCTGCTACATTC | ≥ 1 | – |
| AGGAGGGATAAAAGGCAA | – | 0.78 |
| AGGCAGTGTCTGAGGTGG | – | ≥ 1 |

| Sequence | remaining target (mRNA or protein) (fraction of control) (TFRC) | remaining target (mRNA or protein) (fraction of control) (TNFRSF1A) |
| --- | --- | --- |
| AGGCCCCATTGTTCCGTG | – | ≥ 1 |
| AGGCTCTGTGGCTTGTGG | – | 0.53 |
| AGGGCAGTGTGGCAGCGG | – | 0.47 |
| AGGTGGTTTTCTGAAGCG | – | ≥ 1 |
| AGTCCAAGATAAAAGAGG | ≥ 1 | – |
| ATAGCAGATACTTCCACT | 0.96 | – |
| ATATTGAGCCTGTTAGCA | 0.95 | – |
| ATCTCAGTGCCAAAAGGA | ≥ 1 | – |
| ATTAAGTAGAGGACCTGG | 0.66 | – |
| ATTCTTATCTGGTCAGTG | ≥ 1 | – |
| ATTCTTGCTTTCTGAGGT | ≥ 1 | – |
| CAAAGTAAGCGAACCACT | ≥ 1 | – |
| CAACCCTAACTGTAGAAA | ≥ 1 | – |
| CACAGCAATAGTCCCATA | 0.67 | – |
| CACCCGAACCAGGAATCT | ≥ 1 | – |
| CACGAGGGTCGGTGTAGT | ≥ 1 | – |
| CACTTTGTTCAACTCAGG | ≥ 1 | – |
| CAGCAAGTTTCATCTCCA | 0.83 | – |
| CAGCCCCGCAGGATGAAG | ≥ 1 | – |
| CATGTCCAAAGAATGAAA | 0.95 | – |
| CATTCTGAACTGCCACAC | 0.62 | – |
| CCAATCATAAATCCAATC | ≥ 1 | – |
| CCACGAGCAGAATACAGC | ≥ 1 | – |
| CCCTGCTCTGACAATCAC | 0.9 | – |
| CCGAGATGGTGGAAACTG | ≥ 1 | – |
| CCGCCACAGCCCCTTCCC | 0.95 | – |

| Sequence | remaining target (mRNA or protein) (fraction of control) (TFRC) | remaining target (mRNA or protein) (fraction of control) (TNFRSF1A) |
| --- | --- | --- |
| CCTCCGTCCCGAGCCGCC | 0.43 | – |
| CGCTTTCCCGCTCCCCGT | ≥ 1 | – |
| CGGATGCTTCACATTTTG | ≥ 1 | – |
| CGGTTCCTGCCAGTCTCT | 0.54 | – |
| CTACCCCTTTACAATAGC | 0.96 | – |
| CTCATTGGCAAGAAAACA | 0.94 | – |
| CTCCGACAACTTTCTCTT | ≥ 1 | – |
| CTCTGGAGATTGTCTGGA | 0.76 | – |
| CTGAAGAGACCCTATGAA | 0.97 | – |
| CTGGCTCCTCCCTCACTG | 0.75 | – |
| CTGTGCTGTCCAGTTTCT | 0.9 | – |
| GAACTAAATGGAGGCTTA | ≥ 1 | – |
| GAAGCCCGCACTCACACT | 0.8 | – |
| GCGGCTCCCTATGGCTGC | ≥ 1 | – |
| GGAAACTGAGTGTGATTG | ≥ 1 | – |
| GGAAAGGGAAAGCAGCAT | 0.95 | – |
| GGGTTTTATTAGCAGATG | ≥ 1 | – |
| GGTTTCTGAACAGCGTTT | ≥ 1 | – |
| GTCTCCAGCACTCCAACT | ≥ 1 | – |
| GTCTGTTTTCTCAGCATT | ≥ 1 | – |
| GTGACACATTCAAGTGAG | ≥ 1 | – |
| GTTATCGCCATCTACTTG | ≥ 1 | – |
| GTTGTTAGTCTGGAAGTA | 0.9 | – |
| TACACCTTGGATAAACTG | 0.93 | – |
| TACCCAAATAAGGATAAT | ≥ 1 | – |
| TAGAGTCTGTTTTCCAGT | ≥ 1 | – |

| Sequence | remaining target (mRNA or protein) (fraction of control) (TFRC) | remaining target (mRNA or protein) (fraction of control) (TNFRSF1A) |
| --- | --- | --- |
| TATACCTTTACCTCCAAA | 0.99 | – |
| TATCTGAGAACATCTGGG | ≥ 1 | – |
| TATGATGGTTCACTCACG | ≥ 1 | – |
| TATTGTCAGCATTTTCTT | ≥ 1 | – |
| TCAACATACAACGCAAGA | 0.65 | – |
| TCAACCTGGTATCTCCTA | 0.65 | – |
| TCAAGTTCTCCAGTAAAG | ≥ 1 | – |
| TCATTTTATCCAGCAGAA | 0.79 | – |
| TCCAGGTGTGTAAGGGTC | ≥ 1 | – |
| TGGGCAAGTTTCAATAGG | ≥ 1 | – |
| TGGTGCTGGTGAAGTCTG | ≥ 1 | – |
| TTAACAACAACAGGAAAG | ≥ 1 | – |
| TTAATAACTCCAAAGATG | ≥ 1 | – |
| TTACAACCTTCAGCAGAG | ≥ 1 | – |
| TTACCCACCCAATGCTTA | 0.89 | – |
| TTCTCCACCAAACAAGTT | ≥ 1 | – |
| TTCTTTCAGGAATGAGGA | 0.96 | – |
| TTGGCTTCTGGTCCCCTC | 0.38 | – |
| TTGGTTTTGTGACATTGG | 0.92 | – |
| TTTAACATCAGGTTTTGT | ≥ 1 | – |
| TTTAAGTCAAAAGGTCAA | ≥ 1 | – |
| TTTAGCATCAAATGAAGT | ≥ 1 | – |
| TTTGGCTGACGGCTGTTT | 0.39 | – |
